Measurements from US20250152650A1, “COMPOSITIONS FOR TREATING SEA LICE IN SALMON AND RELATED METHODS” (KEMIN INDUSTRIES, INC., priority 2023, published 2025).
Read-outs that look alike come from different tables or passages of the source.

How the values were obtained:
[1] = tested on: mobile stage sea lice (adults and pre-adults); experiment: Mobile stages bioassay; design: species or system Lepeophtheirus salmonis
sea lice = experiment: In-feed trial with sea lice challenge in Atlantic salmon; assay type: in vivo, Atlantic salmon (Salmo salar); settings: for Reduction Versus Control: reduction in mean number of lice at 6-7 dpi versus Control Diet; for Reduction Versus Control / Reduction Versus SLICE: diet doses as in Table 10; for Reduction Versus SLICE: reduction in mean number of lice at 6-7 dpi versus SLICE (10 ppm) diet; for Mean Number of Lice: total copepodid and chalimus lice per fish at 6-7 dpi, study diet fed 3 weeks before challenge with approx. 140 lice per fish, O-LD oregano oil 2000 ppm, O-HD 5000 ppm, M-LD Monarda fistulosa oil 2000 ppm, thymol 1000 ppm, thymoquinone 500 ppm, SLICE 10 ppm
[2] = tested on: copepodids of Norwegian origin; settings: for Mean proportion of survival: 24 hours exposure
[3] = tested on: copepodids of Norwegian origin; experiment: whole plant or invertebrate; settings: Lepeophtheirus salmonis, 24 h, read-out: lethality / lice mortality
salmon = settings: farmed salmon; cited from earlier work
[4] = tested on: L. salmonis copepodids of Canadian origin; experiment: Copepodid bioassay, copepodids of Canadian origin; design: species or system Lepeophtheirus salmonis; settings: for Mean proportion of survival: 24 hours exposure
copepodid sea lice = settings: 10 parts per trillion, purified compounds; cited from earlier work

CC1=CC(=O)C(C(C)C)=CC1=O [Thymoquinone]
Mean proportion of survival ([1]; 1 ppb, 6 hours exposure): 93.3 ± 9.4% | Mean proportion of survival ([1]; 1 ppb, 24 hours exposure): 93.3 ± 9.4% | Mean proportion of survival ([1]; 1 ppm, 6 hours exposure): 100.0 ± 0.0% | Mean proportion of survival ([1]; 1 ppm, 24 hours exposure): 83.7 ± 14.7% | Mean proportion of survival ([1]; 1 ppm, 24 hours exposure, listed as thymoquinone): not significantly different to control | Mean proportion of survival ([1]; 10 ppb, 6 hours exposure): 81.7 ± 5.4% | Mean proportion of survival ([1]; 10 ppb, 24 hours exposure): 87.1 ± 5.4% | Mean proportion of survival ([1]; 10 ppm, 6 hours exposure): 60.7 ± 5.1% | Mean proportion of survival ([1]; 10 ppm, 24 hours exposure): 0.0 ± 0.0 % | Mean proportion of survival ([1]; 10 ppm, 24 hours exposure, listed as thymoquinone): completely lethal | Mean proportion of survival ([1]; 100 ppb, 6 hours exposure): 91.7 ± 2.4% | Mean proportion of survival ([1]; 100 ppb, 24 hours exposure): 91.7 ± 2.4% | Reduction Versus Control (sea lice): 1.7% | Reduction Versus SLICE (sea lice): 21.7% | Mean Number of Lice (sea lice): 59.1 | Mean proportion of survival ([2]; 0.01 ppb): 98.1 ± 3.2% | Mean proportion of survival ([2]; 0.1 ppb): 98.6 ± 2.4% | Mean proportion of survival ([2]; 1 ppb): 97.3 ± 2.5% | Mean proportion of survival ([2]; 1 ppm): 75.6 ± 9.3 % | Mean proportion of survival ([2]; 1 ppm, listed as thymoquinone): did not result in a biologically significant reduction in survival | Mean proportion of survival ([2]; 10 ppb): 100.0 ± 0.0% | Mean proportion of survival ([2]; 10 ppm): 0.0 ± 0.0 % | Mean proportion of survival ([2]; 100 ppb): 92.9 ± 9.1% | mortality at 10 ppm [3]: 100%

OO [hydrogen peroxide]
mortality caused by a single treatment (salmon): 1%

Cc1ccc(C(C)C)c(O)c1 [Thymol]
Mean proportion of survival ([1]; 1 ppb, 6 hours exposure): 100.0 ± 0.0% | Mean proportion of survival ([1]; 1 ppb, 24 hours exposure): 96.2 ± 5.4% | Mean proportion of survival ([1]; 1 ppm, 6 hours exposure): 92.8 ± 0.7% | Mean proportion of survival ([1]; 1 ppm, 24 hours exposure): 92.8 ± 0.7% | Mean proportion of survival ([1]; 1 ppm, 24 hours exposure, listed as thymol): not significantly different to control | Mean proportion of survival ([1]; 10 ppb, 6 hours exposure): 95.8 ± 5.9% | Mean proportion of survival ([1]; 10 ppb, 24 hours exposure): 88.1 ± 5.0% | Mean proportion of survival ([1]; 10 ppm, 6 hours exposure): 23.7 ± 6.9% | Mean proportion of survival ([1]; 100 ppb, 6 hours exposure): 97.1 ± 4.2% | Mean proportion of survival ([1]; 100 ppb, 24 hours exposure): 97.1 ± 4.2% | Reduction Versus Control (sea lice): 1.2% | Reduction Versus SLICE (sea lice): −14.6% | Mean Number of Lice (sea lice): 86.5 | Mean proportion of survival ([2]; 0.01 ppb): 98.7 ± 2.2% | Mean proportion of survival ([2]; 0.1 ppb): 93.9 ± 4.4% | Mean proportion of survival ([2]; 1 ppb): 100.0 ± 0.0% | Mean proportion of survival ([2]; 1 ppm): 87.9 ± 3.9% | Mean proportion of survival ([2]; 10 ppb): 93.1 ± 9.3% | Mean proportion of survival ([2]; 10 ppm): 56.1 ± 2.0 % | Mean proportion of survival ([2]; 100 ppb): 84.4 ± 6.1%

C=CCSSCC=C [Diallyl disulfide, diallyl disulfide]
Mean proportion of survival ([4]; 1 ppb): 96.9 ± 2.7% | Mean proportion of survival ([4]; 1 ppm): 86.3 ± 4.0% | Mean proportion of survival ([4]; 10 ppb): 93.6 ± 8.0% | Mean proportion of survival ([4]; 10 ppm): 34.6 ± 6.4% | Mean proportion of survival ([4]; 10 ppm, listed as DD): 34.6% | Mean proportion of survival ([4]; 100 ppb): 95.2 ± 4.6% | Mean proportion of survival ([4]; 100 ppm (0.01%)): 17.4 ± 3.2% | Mean proportion of survival ([4]; 100 ppm (0.01%), listed as DD): 17.4% | survival compared to control, in words ([1]; 10 and 100 ppm): did not result in different survival compared to control | Mean proportion of survival ([1]; 10 ppm, 6 hours exposure): 100.0 ± 0.0% | Mean proportion of survival ([1]; 10 ppm, 24 hours exposure): 96.7 ± 4.7% | Mean proportion of survival ([1]; 100 ppm, 6 hours exposure): 96.2 ± 5.4% | Mean proportion of survival ([1]; 100 ppm, 24 hours exposure): 88.7 ± 5.8% | masking of copepodid attraction to hosts or alpha-isophorone conditioned seawater (copepodid sea lice): masked copepodid sea lice attraction to hosts

emamectin benzoate [EMB, reference compound]
survival, range over the dilution set ([4]; 0.5-50 ppb, 24 hours): 35.5-53.2% | Mean proportion of survival ([4]; 0.5 ppb): 53.2 ± 10.2% | Mean proportion of survival ([4]; 5 ppb): 50.7 ± 6.1% | Mean proportion of survival ([4]; 50 ppb): 35.5 ± 2.1% | Mean proportion of survival ([1]; 100 ppb, 6 hours exposure): 96.7 ± 4.7% | Mean proportion of survival ([1]; 200 ppb, 6 hours exposure): 56.7 ± 4.7% | Mean proportion of survival ([1]; 200 ppb, 24 hours exposure): 53.3 ± 18.9% | Mean proportion of survival ([1]; 400 ppb, 6 hours exposure): 36.7 ± 14.1% | Mean proportion of survival ([1]; 400 ppb, 24 hours exposure): 23.3 ± 4.7% | Mean proportion of survival ([1]; 500 ppb, 24 hours, follow up trial): 46.9 ± 9.8% | Mean proportion of survival ([2]; 0.1 ppb): 0.0 ± 0.0% | Mean proportion of survival ([2]; 1 ppb): 0.0 ± 0.0% | Mean proportion of survival ([2]; 10 ppb): 0.0 ± 0.0% | survival, in words ([2]; all tested concentrations between 10 and 0.1 ppb): no survival

C=CCSCC=C [diallyl sulfide]
masking of copepodid attraction to hosts or alpha-isophorone conditioned seawater (copepodid sea lice): masked copepodid sea lice attraction to hosts
